Source: patent US20130345205A1, “SUBSTITUTED BICYCLIC ARALKYL PYRAZOLE LACTAM ANALOGS AS ALLOSTERIC MODULATORS OF MGLUR5 RECEPTORS” (Vanderbilt University, priority 2012, published 2013)

Columns and labels:
[1] = target: human mGluR5 (Homo sapiens, UniProt P41594); assay: Cell-based functional Ca2+ mobilization assay (FDSS), potentiation of glutamate EC20 response; settings: H10H cell-line (HEK, recombinant human mGluR5); for Emax: glutamate EC20, maximum average response at a single concentration, percent of maximal glutamate response; for EC50: positive allosteric modulation in presence of glutamate EC20, concentration in mol/L
Description: Human mGluR5a cDNA in pCMV6-XL6 mammalian expression plasmid was purchased from OriGene Technologies, Inc. (catalogue number SC326357) and subcloned into pcDNA3.1(−). Human embryonic kidney (HEK) 293A cells were then transfected with human mGluR5a pcDNA3.1(−) using LipofectAmine2000 (Invitrogen) and monoclones were selected and tested for functional response using a Ca^2+ mobilization assay. Monoclones were named for the species (“H” for human) plus the location on the plate (e.g. “10H”).
HEK cells transfected with the human mGluR5a receptor (H10H or H12H cell line) were plated at 15,000 cells/well in clear-bottomed poly-D-lysine-coated assay plates (BD Falcon) in glutamate-glutamine-free growth medium and incubated overnight at 37° C. and 5% CO2. Cell-lines used were either the H10H or H12H cell-lines expressing the human mGluR5 receptor. The following day, the growth medium was removed and the cells were washed with assay buffer containing 1× Hank's balanced salt solution (Invitrogen, Carlsbad, Calif.), 20 mM HEPES, 2.5 mM probenecid, pH 7.4 and left with 20 μL of this reagent. Following this step, the cells were loaded with calcium indicator dye, fluo-4 AM, to a final concentration of 2 μM and incubated for 40-45 min at 37° C. The dye solution was removed and replaced with assay buffer. Cell plates were held for 10-15 min at room temperature and were then loaded into the Functional Drug Screening System 6000 (FDSS 6000, Hamamatsu, Japan).
After establishment of a fluorescence baseline for about 3 seconds, the compounds of the present invention were added to the cells, and the response in cells was measured. 2.3 minutes later an EC20 concentration of the mGluR5 receptor agonist glutamate was added to the cells, and the response of the cells was measured for about 1.7 minutes. All test compounds were dissolved and diluted to a concentration of 10 mM in 100% DMSO and then serially diluted into assay buffer for a 2× stock solution in 0.6% DMSO; stock compounds were then added to the assay for a final DMSO concentration of 0.3% after the first addition to the assay well. Calcium fluorescence measures were recorded as fold over basal fluorescence; raw data was then normalized to the maximal response to glutamate. Potentiation of the agonist response of the mGluR5 receptor in the present invention was observed as an increase in response to submaximal concentrations of glutamate in the presence of compound compared to the response to glutamate in the absence of compound.
The concentration-response curves of compounds of the present invention, obtained in the presence of EC20 of mGluR5 receptor agonist glutamate to determine positive allosteric modulation, were generated using Microsoft Excel with IDBS XLFit add-ins. The raw data file containing all time points was used as the data source in the analysis template. This was saved by the FDSS as a tab-delimited text file. Data were normalized using a static ratio function (F/F0) for each measurement of the total 350 values per well divided by each well's initial value. Data was then reduced as to peak amplitudes (Max-Initial Min) using a time range that starts approximately 1 second after the glutamate EC20 addition and continues for approximately 40 seconds. This is sufficient time to capture the peak amplitude of the cellular Calcium response. Individual amplitudes were expressed as % EMax by multiplying each amplitude by 100 and then dividing the product by the mean of the amplitudes derived from the glutamate ECMax-treated wells. pEC50 values for test compounds were generated by fitting the normalized values versus the log of the test compound concentration (in mol/L) using a 4 parameter logistic equation where none of the parameters were fixed. Each of the three values collected at each concentration of test compound were weighted evenly. Individual values falling outside the 95% prediction limits of the curve fit were automatically excluded from the fit. […]

Sequence of human mGluR5 (P41594 21-1180 isoform P41594-2 limits assumed): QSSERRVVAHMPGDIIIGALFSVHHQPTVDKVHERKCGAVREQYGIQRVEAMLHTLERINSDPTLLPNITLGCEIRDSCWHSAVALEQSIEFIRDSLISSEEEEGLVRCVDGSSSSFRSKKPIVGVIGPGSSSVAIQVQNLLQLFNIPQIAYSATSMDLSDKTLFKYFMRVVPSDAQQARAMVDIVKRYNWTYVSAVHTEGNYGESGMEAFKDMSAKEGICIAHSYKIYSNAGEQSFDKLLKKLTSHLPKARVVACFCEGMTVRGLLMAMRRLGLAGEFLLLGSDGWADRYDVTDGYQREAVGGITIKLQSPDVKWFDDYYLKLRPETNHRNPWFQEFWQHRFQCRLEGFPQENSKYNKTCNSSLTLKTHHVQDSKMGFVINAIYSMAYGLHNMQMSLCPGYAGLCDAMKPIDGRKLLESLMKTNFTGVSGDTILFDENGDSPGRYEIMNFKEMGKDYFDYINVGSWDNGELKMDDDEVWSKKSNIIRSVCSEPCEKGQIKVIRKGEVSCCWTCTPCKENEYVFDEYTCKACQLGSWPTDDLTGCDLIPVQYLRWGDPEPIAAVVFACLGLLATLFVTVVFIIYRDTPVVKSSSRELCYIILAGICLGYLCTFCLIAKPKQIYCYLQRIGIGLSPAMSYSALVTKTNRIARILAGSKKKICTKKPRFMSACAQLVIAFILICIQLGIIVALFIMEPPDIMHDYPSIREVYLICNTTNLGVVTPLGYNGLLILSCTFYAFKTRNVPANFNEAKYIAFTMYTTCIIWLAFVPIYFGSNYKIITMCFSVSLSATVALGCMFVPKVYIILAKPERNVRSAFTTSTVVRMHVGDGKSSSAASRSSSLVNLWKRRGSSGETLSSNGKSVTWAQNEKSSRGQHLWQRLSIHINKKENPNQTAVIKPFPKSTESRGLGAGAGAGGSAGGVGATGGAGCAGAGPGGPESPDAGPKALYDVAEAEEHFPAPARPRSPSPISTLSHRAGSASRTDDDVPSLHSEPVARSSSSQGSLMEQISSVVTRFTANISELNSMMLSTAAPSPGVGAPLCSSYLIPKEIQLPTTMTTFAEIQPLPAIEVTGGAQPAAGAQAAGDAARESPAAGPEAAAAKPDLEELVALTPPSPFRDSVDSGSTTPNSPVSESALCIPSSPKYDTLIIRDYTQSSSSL

COc1ccc(CN2CCn3nc(COc4ccnc(C)c4)cc3C2=O)cc1 [Example B33]
melting point: 117.1 °C | Emax [1]: 30% | EC50 [1]: > 10000 nM

COc1ccc(CN2CCn3nc(COc4cc(C)nc(C)c4)cc3C2=O)cc1 [Example B35]
melting point: 164.8 °C | Emax [1]: 17% | EC50 [1]: > 31600 nM

COc1cccc(CN2CCn3nc(COc4ccccc4)cc3C2=O)c1 [Example B36]
melting point: 82.5 °C | Emax [1]: 65% | EC50 [1]: 107 nM

CC1(C)CN(Cc2ccccc2)C(=O)c2cc(COc3ccccc3)nn21 [Example B45]
melting point: 112.6 °C | Emax [1]: 66% | EC50 [1]: 178 nM

O=C1c2cc(COc3ccccc3)nn2CCN1Cc1ccccc1Cl [Example B46]
melting point: 111.2 °C | Emax [1]: 75% | EC50 [1]: 26.3 nM

O=C1c2cc(COc3ccccc3)nn2CCN1Cc1cccc(Cl)c1 [Example B47]
melting point: 218 °C | Emax [1]: 76% | EC50 [1]: 55 nM

O=C1c2cc(COc3ccccc3)nn2CCN1Cc1ccc(Cl)cc1 [Example B48]
melting point: 169 °C | Emax [1]: 65% | EC50 [1]: 155 nM

Cc1ccnc(OCc2cc3n(n2)CCN(Cc2ccccc2)C3=O)c1 [Example B62]
melting point: 75.4 °C | Emax [1]: 39% | EC50 [1]: 759 nM

Cc1ccccc1CN1CCn2nc(COc3ccccc3)cc2C1=O [Example B63]
melting point: 189.6 °C | Emax [1]: 70% | EC50 [1]: 33.9 nM

Cc1cccc(CN2CCn3nc(COc4ccccc4)cc3C2=O)c1 [Example B64]
melting point: 95.3 °C | Emax [1]: 61% | EC50 [1]: 47.9 nM

Cc1ccc(CN2CCn3nc(COc4ccccc4)cc3C2=O)cc1 [Example B65]
melting point: 164.9 °C | Emax [1]: 75% | EC50 [1]: 145 nM

COc1cc(CN2CCn3nc(COc4ccccc4)cc3C2=O)ccc1F [Example B66]
melting point: 132.1 °C | Emax [1]: 64% | EC50 [1]: 204 nM

COc1cccc(F)c1CN1CCn2nc(COc3ccccc3)cc2C1=O [Example B67]
melting point: 87.6 °C | Emax [1]: 68% | EC50 [1]: 195 nM

COc1c(Cl)cccc1CN1CCn2nc(COc3ccccc3)cc2C1=O [Example B68]
melting point: 116 °C | Emax [1]: 65.5% | EC50 [1]: 17.8 nM

O=C1c2cc(COc3ccccc3F)nn2CCN1Cc1ccccc1 [Example B69]
melting point: 104.2 °C | Emax [1]: 69% | EC50 [1]: 209 nM

COc1cncc(CN2CCn3nc(COc4ccccc4)cc3C2=O)n1 [Example B71]
melting point: 96 °C | Emax [1]: 73% | EC50 [1]: 525 nM

N#Cc1cccc(CN2CCn3nc(COc4ccccc4)cc3C2=O)c1 [Example B72]
melting point: 117.4 °C | Emax [1]: 81% | EC50 [1]: 229 nM

CN(C)c1cccc(CN2CCn3nc(COc4ccccc4)cc3C2=O)n1 [Example B74]
melting point: 71.8 °C | Emax [1]: 69% | EC50 [1]: 95.5 nM

COc1cccnc1CN1CCn2nc(COc3ccccc3)cc2C1=O [Example B75]
melting point: 132.4 °C | Emax [1]: 71% | EC50 [1]: 1150 nM

Cc1cncc(CN2CCn3nc(COc4ccccc4)cc3C2=O)n1 [Example B77]
melting point: 120.4 °C | Emax [1]: 66% | EC50 [1]: 2290 nM

Cc1nc(CN2CCn3nc(COc4ccccc4)cc3C2=O)ccc1F [Example B78]
melting point: 114.2 °C | Emax [1]: 70% | EC50 [1]: 295 nM

Cc1cc(CN2CCn3nc(COc4ccccc4)cc3C2=O)ncc1F [Example B82]
melting point: 129.8 °C | Emax [1]: 75.5% | EC50 [1]: 355 nM

O=C1c2cc(COc3ccccc3)nn2CCN1Cc1ncccc1F [Example B83]
melting point: 117.2 °C | Emax [1]: 77% | EC50 [1]: 417 nM

Cc1nccc(CN2CCn3nc(COc4ccccc4)cc3C2=O)n1 [Example B84]
melting point: > 300 °C | Emax [1]: 70% | EC50 [1]: 1740 nM

Cc1cccc(CN2CCn3nc(COc4ccc(F)cc4)cc3C2=O)n1 [Example B85]
melting point: 147.4 °C | Emax [1]: 69.5% | EC50 [1]: 447 nM

Cc1cccc(CN2C(=O)c3cc(COc4ccccc4)nn3C[C@H]2C)n1 [Example B86]
melting point: 107.6 °C | Emax [1]: 71.5% | EC50 [1]: 302 nM

C[C@@H]1Cn2nc(COc3ccccc3)cc2C(=O)N1Cc1ncccc1Cl [Example B87]
melting point: 166.4 °C | Emax [1]: 80% | EC50 [1]: 275 nM

O=C1c2cc(COc3ccc(F)cc3)nn2CCN1Cc1ncccc1Cl [Example B88]
melting point: 268.8 °C | Emax [1]: 71% | EC50 [1]: 93.3 nM

Cc1cc(CN2CCn3nc(COc4ccccc4)cc3C2=O)no1 [Example B89]
melting point: 187.5 °C | Emax [1]: 66% | EC50 [1]: 955 nM

O=C1c2cc(COc3ccccc3)nn2CCN1Cc1nc2ccccc2s1 [Example B91]
melting point: 105.8 °C | Emax [1]: 69% | EC50 [1]: 67.6 nM

O=C1c2cc(COc3ccccc3)nn2CCN1Cc1nc2ccccc2o1 [Example B92]
melting point: 145.4 °C | Emax [1]: 65% | EC50 [1]: 282 nM

O=C1c2cc(COc3ccccc3)nn2CCN1Cc1cccc2cccnc12 [Example B93]
melting point: 131.3 °C | Emax [1]: 73% | EC50 [1]: 25.7 nM

O=C1c2cc(COc3ccccc3)nn2CCN1Cc1nccc2ccccc12 [Example B94]
melting point: 137.6 °C | Emax [1]: 76% | EC50 [1]: 123 nM

O=C1c2cc(COc3ccccc3)nn2CCN1Cc1ccc(C(F)(F)F)nc1 [Example B95]
melting point: 115.4 °C | Emax [1]: 75% | EC50 [1]: 372 nM

Cc1ncccc1CN1CCn2nc(COc3ccccc3)cc2C1=O [Example B96]
melting point: 137.5 °C | Emax [1]: 67% | EC50 [1]: 1000 nM

Cc1nc(CN2CCn3nc(COc4ccccc4)cc3C2=O)cs1 [Example B97]
melting point: 121.9 °C | Emax [1]: 65% | EC50 [1]: 417 nM

Cn1c(CN2CCn3nc(COc4ccccc4)cc3C2=O)nc2ccccc21 [Example B98]
melting point: > 300 °C | Emax [1]: 72% | EC50 [1]: > 10000 nM

COc1ccc(CN2CCn3nc(COc4ccccn4)cc3C2=O)cc1 [Example B101]
melting point: 95 °C | Emax [1]: 68% | EC50 [1]: 1290 nM

COc1nccnc1CN1CCn2nc(COc3cccc(F)c3)cc2C1=O [Example B103]
melting point: 154.1 °C | Emax [1]: 63% | EC50 [1]: 324 nM

O=C1c2cc(COc3cccc(F)c3)nn2CCN1Cc1ncccc1F [Example B104]
melting point: > 300 °C | Emax [1]: 65% | EC50 [1]: 550 nM
